Measurements as given in PubChem BioAssay (NCI).
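Protocol summary: plate cells (96-well), add compound at 5 concentrations, incubate 48 h, interpolate endpoints linearly. Here, GI50 denotes the concentration required for 50% inhibition of growth. TGI: concentration producing complete growth inhibition.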

Key:
Assay in all cases: NCI tumour cell line growth inhibition, 48 h
RXF 393 renal = test system: RXF 393 renal
A498 renal = test system: A498 renal
HCT-15 colon = test system: HCT-15 colon
ACHN renal = test system: ACHN renal
NCI-H460 lung = test system: NCI-H460 lung
IGROV1 ovarian = test system: IGROV1 ovarian
SF-268 CNS = test system: SF-268 CNS
PC-3 prostate = test system: PC-3 prostate
CCRF-CEM leukemia = test system: CCRF-CEM leukemia
CAKI-1 renal = test system: CAKI-1 renal
SNB-19 CNS = test system: SNB-19 CNS
HS 578T breast = test system: HS 578T breast
TK-10 renal = test system: TK-10 renal
SF-539 CNS = test system: SF-539 CNS
NCI-H23 lung = test system: NCI-H23 lung
T-47D breast = test system: T-47D breast
NCI/ADR-RES ovarian = test system: NCI/ADR-RES ovarian
OVCAR-4 ovarian = test system: OVCAR-4 ovarian
OVCAR-3 ovarian = test system: OVCAR-3 ovarian
M14 melanoma = test system: M14 melanoma
MOLT-4 leukemia = test system: MOLT-4 leukemia
A549 NSCLC = test system: A549 NSCLC
HCC-2998 colon = test system: HCC-2998 colon
SW-620 colon = test system: SW-620 colon
HOP-62 NSCLC = test system: HOP-62 NSCLC
SR leukemia = test system: SR leukemia
SK-MEL-2 melanoma = test system: SK-MEL-2 melanoma
MALME-3M melanoma = test system: MALME-3M melanoma
DU-145 prostate = test system: DU-145 prostate
UACC-257 melanoma = test system: UACC-257 melanoma
SK-MEL-28 melanoma = test system: SK-MEL-28 melanoma
SNB-75 CNS = test system: SNB-75 CNS
HT29 colon = test system: HT29 colon
HL-60(TB) leukemia = test system: HL-60(TB) leukemia
OVCAR-5 ovarian = test system: OVCAR-5 ovarian
COLO 205 colon = test system: COLO 205 colon
HCT-116 colon = test system: HCT-116 colon
UACC-62 melanoma = test system: UACC-62 melanoma
MDA-MB-231 breast = test system: MDA-MB-231 breast
SK-MEL-5 melanoma = test system: SK-MEL-5 melanoma
BT-549 breast = test system: BT-549 breast
SF-295 CNS = test system: SF-295 CNS
LOX IMVI melanoma = test system: LOX IMVI melanoma
NCI-H522 lung = test system: NCI-H522 lung
HOP-92 NSCLC = test system: HOP-92 NSCLC
MCF7 breast = test system: MCF7 breast
K-562 leukemia = test system: K-562 leukemia
NCI-H226 lung = test system: NCI-H226 lung
MDA-MB-468 breast = test system: MDA-MB-468 breast
KM12 colon = test system: KM12 colon
U251 CNS = test system: U251 CNS
EKVX NSCLC = test system: EKVX NSCLC
RPMI-8226 leukemia = test system: RPMI-8226 leukemia
SK-OV-3 ovarian = test system: SK-OV-3 ovarian

Structure (SMILES): CC(=O)NCC1=C(C)C=C2C(=O)[C@](C)(O)C3(CC3)C(C)=C21
- GI50 (RXF 393 renal): 0.0164 µM
- TGI (RXF 393 renal): 0.0328 µM
- GI50 (A498 renal): 0.0257 µM
- TGI (A498 renal): 0.0655 µM
- GI50 (HCT-15 colon): 0.044 µM
- TGI (HCT-15 colon): 0.325 µM
- GI50 (ACHN renal): 0.0228 µM
- TGI (ACHN renal): 0.0578 µM
- GI50 (NCI-H460 lung): 0.0225 µM
- TGI (NCI-H460 lung): 0.132 µM
- GI50 (IGROV1 ovarian): 0.028 µM
- TGI (IGROV1 ovarian): 0.0804 µM
- GI50 (SF-268 CNS): 0.0332 µM
- TGI (SF-268 CNS): 0.577 µM
- GI50 (PC-3 prostate): 0.068 µM
- TGI (PC-3 prostate): 0.898 µM
- GI50 (CCRF-CEM leukemia): 13.5 µM
- TGI (CCRF-CEM leukemia): > 84.9 µM
- GI50 (CAKI-1 renal): 0.0404 µM
- TGI (CAKI-1 renal): 0.791 µM
- GI50 (SNB-19 CNS): 0.163 µM
- TGI (SNB-19 CNS): 0.751 µM
- GI50 (HS 578T breast): 0.204 µM
- TGI (HS 578T breast): 0.678 µM
- GI50 (TK-10 renal): 0.0364 µM
- GI50 (SF-539 CNS): 0.0225 µM
- TGI (SF-539 CNS): 0.0565 µM
- GI50 (NCI-H23 lung): 0.0159 µM
- TGI (NCI-H23 lung): 0.0372 µM
- GI50 (T-47D breast): 0.0438 µM
- TGI (T-47D breast): 0.84 µM
- GI50 (NCI/ADR-RES ovarian): 0.0648 µM
- TGI (NCI/ADR-RES ovarian): 0.323 µM
- GI50 (OVCAR-4 ovarian): 0.071 µM
- TGI (OVCAR-4 ovarian): 0.322 µM
- GI50 (OVCAR-3 ovarian): 0.0397 µM
- TGI (OVCAR-3 ovarian): 0.472 µM
- GI50 (M14 melanoma): 0.0712 µM
- TGI (M14 melanoma): 0.22 µM
- GI50 (MOLT-4 leukemia): 8.44 µM
- TGI (MOLT-4 leukemia): > 100 µM
- GI50 (A549 NSCLC): 0.0312 µM
- TGI (A549 NSCLC): 0.33 µM
- GI50 (HCC-2998 colon): 0.0287 µM
- TGI (HCC-2998 colon): 0.103 µM
- GI50 (SW-620 colon): 13.4 µM
- TGI (SW-620 colon): 38.7 µM
- GI50 (HOP-62 NSCLC): 0.0246 µM
- TGI (HOP-62 NSCLC): 0.0761 µM
- GI50 (SR leukemia): 5.7 µM
- TGI (SR leukemia): > 100 µM
- GI50 (SK-MEL-2 melanoma): 0.179 µM
- TGI (SK-MEL-2 melanoma): 0.346 µM
- GI50 (MALME-3M melanoma): 0.0602 µM
- TGI (MALME-3M melanoma): 0.181 µM
- GI50 (DU-145 prostate): 0.0275 µM
- TGI (DU-145 prostate): 0.233 µM
- GI50 (UACC-257 melanoma): 0.0934 µM
- TGI (UACC-257 melanoma): 0.29 µM
- GI50 (SK-MEL-28 melanoma): 0.125 µM
- TGI (SK-MEL-28 melanoma): 0.293 µM
- GI50 (SNB-75 CNS): 0.0197 µM
- TGI (SNB-75 CNS): 0.0735 µM
- GI50 (HT29 colon): 0.0356 µM
- GI50 (HL-60(TB) leukemia): 0.0279 µM
- TGI (HL-60(TB) leukemia): 0.876 µM
- GI50 (OVCAR-5 ovarian): 0.0342 µM
- TGI (OVCAR-5 ovarian): 0.24 µM
- GI50 (COLO 205 colon): 0.039 µM
- TGI (COLO 205 colon): 0.162 µM
- GI50 (HCT-116 colon): 0.0509 µM
- GI50 (UACC-62 melanoma): 0.132 µM
- TGI (UACC-62 melanoma): 0.278 µM
- GI50 (MDA-MB-231 breast): 0.067 µM
- TGI (MDA-MB-231 breast): 0.306 µM
- GI50 (SK-MEL-5 melanoma): 0.0704 µM
- TGI (SK-MEL-5 melanoma): 0.216 µM
- GI50 (BT-549 breast): 0.0277 µM
- TGI (BT-549 breast): 0.0991 µM
- GI50 (SF-295 CNS): 0.0262 µM
- TGI (SF-295 CNS): 0.122 µM
- GI50 (LOX IMVI melanoma): 0.136 µM
- TGI (LOX IMVI melanoma): 0.354 µM
- GI50 (NCI-H522 lung): 0.254 µM
- TGI (NCI-H522 lung): 0.997 µM
- GI50 (HOP-92 NSCLC): 0.0261 µM
- TGI (HOP-92 NSCLC): 0.0702 µM
- GI50 (MCF7 breast): 0.214 µM
- TGI (MCF7 breast): > 20.6 µM
- GI50 (K-562 leukemia): 15 µM
- TGI (K-562 leukemia): > 100 µM
- GI50 (NCI-H226 lung): 0.143 µM
- TGI (NCI-H226 lung): 0.615 µM
- GI50 (MDA-MB-468 breast): < 0.0136 µM
- TGI (MDA-MB-468 breast): 0.0303 µM
- GI50 (KM12 colon): 0.257 µM
- TGI (KM12 colon): 5.85 µM
- GI50 (U251 CNS): 0.051 µM
- GI50 (EKVX NSCLC): 0.116 µM
- TGI (EKVX NSCLC): 0.356 µM
- GI50 (RPMI-8226 leukemia): 22.9 µM
- TGI (RPMI-8226 leukemia): > 83.5 µM
- GI50 (SK-OV-3 ovarian): 0.0301 µM
- TGI (SK-OV-3 ovarian): 0.0993 µM
